One experiment has as its target T1, ER-α in MCF-7 cells (Homo sapiens, UniProt P03372).
T1 sequence (P03372 1-595): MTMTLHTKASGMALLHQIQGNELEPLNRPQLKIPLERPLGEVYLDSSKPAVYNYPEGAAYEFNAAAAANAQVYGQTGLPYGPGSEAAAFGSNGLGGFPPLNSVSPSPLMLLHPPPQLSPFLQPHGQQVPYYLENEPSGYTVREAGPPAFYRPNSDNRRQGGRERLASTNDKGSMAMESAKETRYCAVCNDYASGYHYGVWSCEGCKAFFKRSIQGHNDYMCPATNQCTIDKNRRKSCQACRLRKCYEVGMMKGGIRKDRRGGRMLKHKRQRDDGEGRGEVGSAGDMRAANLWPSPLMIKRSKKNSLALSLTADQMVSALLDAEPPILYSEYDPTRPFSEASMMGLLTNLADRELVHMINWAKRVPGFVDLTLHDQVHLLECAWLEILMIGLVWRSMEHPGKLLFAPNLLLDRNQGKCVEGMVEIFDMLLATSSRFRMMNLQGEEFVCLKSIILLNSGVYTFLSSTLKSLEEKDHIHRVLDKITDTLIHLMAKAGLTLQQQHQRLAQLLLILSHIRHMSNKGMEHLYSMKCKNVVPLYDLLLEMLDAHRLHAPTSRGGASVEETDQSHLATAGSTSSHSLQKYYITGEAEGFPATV
Kind of experiment: Breast cancer cell ER-α in cell western assay (SP1). In kind it is cell-based. On the set-up: endogenous in cells; host or cells: MCF-7. The following applies: 4 or 24 hr post compound addition; for Emax: MCF7, SP1 antibody, read-out: ER-α In Cell Western Assay (SP1) Max Response; for DC50: SP1 antibody, read-out: ER-α In Cell Western Assay (SP1) IC50. A digest of the protocol:
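Percent remaining ER: SP1 immunofluorescence normalized to DRAQ5 nuclear stain, compared with untreated controls. Treatment lasted 4 or 24 hr across 0.3–0.000003 μM final in MCF-7.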

For a further experiment, the system named is MCF-7 cells. As to the kind of experiment: Breast cancer cell viability assay (CellTiter-Glo, 5 days). Format: cell-based. The following applies: 5 days' compound exposure; for IC50: Homo sapiens, MCF7, 120 h. A digest of the protocol:
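Eleven-point semilog compound series, final 0.3-0.000003 μM, added to overnight-adhered MCF-7 cells (320/well; RPMI, 10% FBS, 20 mM HEPES) for 5 days. Viability read by CellTiter-Glo luminescence, background from medium without cells subtracted, expressed relative to untreated cells.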
Background: In ATP-based viability assays light output follows the ATP content of the culture.

SMILES strings stand for the structures.

Broadly, the IC50 is the point on the concentration scale where inhibition reaches its midpoint. Higher therefore signals a need for much substance. Take `CC/C(=C(/c1ccc(/C=C/C(=O)O)cc1)c1ccc2[nH]ncc2c1)c1ccc2cnn(C)c2c1` [Compound 258, (E)-3-(4-((E)-1-(1H-Indazol-5-yl)-2-(1-methyl-1H-indazol-6-yl)but-1-en-1-yl)phenyl)acrylic acid]: on ER-α in MCF-7 cells, the Emax is no less than 40% and the DC50 was no more than 100 nM. Moreover, in the experiment with MCF-7 cells, the “MCF7 Viability Assay Max Response” value is reported as “++ (++ = a single % value ≧ 40%)” and the IC50 is greater than 100 nM.
The like results for `CC/C(=C(/c1ccc(/C=C/C(=O)O)cc1)c1ccc2[nH]ncc2c1)c1ccc2ncsc2c1` [Compound 259, (E)-3-(4-((E)-2-(Benzo[d]thiazol-6-yl)-1-(1H-indazol-5-yl)but-1-en-1-yl)phenyl)acrylic acid] were, in that order, no less than 40%, no more than 100 nM, “++ (++ = a single % value ≧ 40%)” and no more than 100 nM.
The like results for `CC/C(=C(/c1ccc(/C=C/C(=O)O)cc1)c1ccc2[nH]ncc2c1)c1ccc2nccn2c1` [Compound 260, (E)-3-(4-((E)-2-(Imidazo[1,2-a]pyridin-6-yl)-1-(1H-indazol-5-yl)but-1-en-1-yl)phenyl)acrylic acid] were, in that order, less than 40%, greater than 100 nM, “+ (+ = a single % value < 40%)” and greater than 100 nM.
The like results for `CC/C(=C(/c1ccc(/C=C/C(=O)O)cc1)c1ccc2[nH]ncc2c1)c1cccc(Oc2ccccc2)c1` [Compound 261, (E)-3-(4-((E)-1-(1H-Indazol-5-yl)-2-(3-phenoxyphenyl)but-1-en-1-yl)phenyl)acrylic acid] were, in that order, no less than 40%, no more than 100 nM, “++ (++ = a single % value ≧ 40%)” and no more than 100 nM.
`CC/C(=C(/c1ccc(/C=C/C(=O)O)cc1)c1ccc2[nH]ncc2c1)c1ccc2c(c1)N(C)C(=O)CO2` [Compound 262, (E)-3-(4-((E)-1-(1H-Indazol-5-yl)-2-(4-methyl-3-oxo-3,4-dihydro-2H-benzo[b][1,4]oxazin-6-yl)but-1-en-1-yl)phenyl)acrylic acid]: on ER-α in MCF-7 cells, the Emax is no less than 40% and the DC50 was greater than 100 nM. Moreover, in the experiment on MCF-7 cells, the “MCF7 Viability Assay Max Response” value is “++ (++ = a single % value ≧ 40%)” and the IC50 is greater than 100 nM.
As to `CC/C(=C(/c1ccc(/C=C/C(=O)O)cc1)c1ccc2[nH]ncc2c1)c1ccc(Oc2ccccc2)cc1` [Compound 263, (E)-3-(4-((E)-1-(1H-Indazol-5-yl)-2-(4-phenoxyphenyl)but-1-en-1-yl)phenyl)acrylic acid], at ER-α in MCF-7 cells, the Emax is no less than 40% and the DC50 was no more than 100 nM. Moreover, in the experiment on MCF-7 cells, the “MCF7 Viability Assay Max Response” value is recorded as “++ (++ = a single % value ≧ 40%)” and the IC50 was no more than 100 nM.
In the case of `CC/C(=C(/c1ccc(/C=C/C(=O)O)cc1)c1ccc2[nH]ncc2c1)c1ccc(-n2cccn2)cc1` [Compound 264, (E)-3-(4-((E)-2-(4-(1H-Pyrazol-1-yl)phenyl)-1-(1H-indazol-5-yl)but-1-en-1-yl)phenyl)acrylic acid], at ER-α in MCF-7 cells, the Emax is no less than 40% and the DC50 is greater than 100 nM. For the same molecule, in the experiment on MCF-7 cells, the “MCF7 Viability Assay Max Response” value is recorded as “++ (++ = a single % value ≧ 40%)” and the IC50 was greater than 100 nM.
In the case of `CC/C(=C(/c1ccc(/C=C/C(=O)O)cc1)c1ccc2[nH]ncc2c1)c1cccc(N2CCOCC2)c1` [Compound 265, (E)-3-(4-((E)-1-(1H-Indazol-5-yl)-2-(3-morpholinophenyl)but-1-en-1-yl)phenyl)acrylic acid], at ER-α in MCF-7 cells, the Emax was no less than 40% and the DC50 is greater than 100 nM. For the same molecule, in the experiment on MCF-7 cells, the “MCF7 Viability Assay Max Response” value is given as “++ (++ = a single % value ≧ 40%)” and the IC50 was greater than 100 nM.
As for `CC/C(=C(/c1ccc(/C=C/C(=O)O)cc1)c1ccc2[nH]ncc2c1)c1ccc2nccnc2c1` [Compound 266, (E)-3-(4-((E)-1-(1H-Indazol-5-yl)-2-(quinoxalin-6-yl)but-1-en-1-yl)phenyl)acrylic acid], at ER-α in MCF-7 cells, the Emax was no less than 40% and the DC50 was no more than 100 nM. In the experiment on MCF-7 cells, the “MCF7 Viability Assay Max Response” value is “++ (++ = a single % value ≧ 40%)” and the IC50 is no more than 100 nM.
For `CC/C(=C(/c1ccc(/C=C/C(=O)O)cc1)c1ccc2[nH]ncc2c1)c1ccsc1Cl` [Compound 267, (E)-3-(4-((E)-2-(2-Chlorothiophen-3-yl)-1-(1H-indazol-5-yl)but-1-en-1-yl)phenyl)acrylic acid], on ER-α in MCF-7 cells, the Emax is no less than 40% and the DC50 was no more than 100 nM. Besides, in the experiment with MCF-7 cells, the “MCF7 Viability Assay Max Response” value is listed as “++ (++ = a single % value ≧ 40%)” and the IC50 is no more than 100 nM.
On to `CC/C(=C(/c1ccc(/C=C/C(=O)O)cc1)c1ccc2[nH]ncc2c1)c1cc2ccccc2s1` [Compound 268, (E)-3-(4-((E)-2-(Benzo[b]thiophen-2-yl)-1-(1H-indazol-5-yl)but-1-en-1-yl)phenyl)acrylic acid], for which, at ER-α in MCF-7 cells, the Emax was no less than 40% and the DC50 is no more than 100 nM. Also, in the experiment with MCF-7 cells, the “MCF7 Viability Assay Max Response” value is “++ (++ = a single % value ≧ 40%)” and the IC50 is greater than 100 nM.
The like results for `CC/C(=C(/c1ccc(/C=C/C(=O)O)cc1)c1ccc2[nH]ncc2c1)c1cccc(Oc2ccc(F)cc2)c1` [Compound 269, (E)-3-(4-((E)-2-(3-(4-Fluorophenoxy)phenyl)-1-(1H-indazol-5-yl)but-1-en-1-yl)phenyl)acrylic acid] were, in that order, no less than 40%, no more than 100 nM, “++ (++ = a single % value ≧ 40%)” and no more than 100 nM.
The like results for `CC/C(=C(/c1ccc(/C=C/C(=O)O)cc1)c1ccc2[nH]ncc2c1)c1cc2c(s1)CCN(C)C2` [Compound 270, (E)-3-(4-((E)-1-(1H-Indazol-5-yl)-2-(5-methyl-4,5,6,7-tetrahydrothieno[3,2-c]pyridin-2-yl)but-1-en-1-yl)phenyl)acrylic acid] were, in that order, no less than 40%, greater than 100 nM, “++ (++ = a single % value ≧ 40%)” and greater than 100 nM.
The like results for `CC/C(=C(/c1ccc(/C=C/C(=O)O)cc1)c1ccc2[nH]ncc2c1)c1csc(-c2ccccc2)c1` [Compound 271, (E)-3-(4-((E)-1-(1H-Indazol-5-yl)-2-(5-phenylthiophen-3-yl)but-1-en-1-yl)phenyl)acrylic acid] were, in that order, no less than 40%, no more than 100 nM, “++ (++ = a single % value ≧ 40%)” and no more than 100 nM.
With `CC/C(=C(/c1ccc(/C=C/C(=O)O)cc1)c1ccc2[nH]ncc2c1)c1ccc2sccc2c1` [Compound 272, (E)-3-(4-((E)-2-(Benzo[b]thiophen-5-yl)-1-(1H-indazol-5-yl)but-1-en-1-yl)phenyl)acrylic acid], at ER-α in MCF-7 cells, the Emax was no less than 40% and the DC50 was no more than 100 nM. In the experiment with MCF-7 cells, the “MCF7 Viability Assay Max Response” value is recorded as “++ (++ = a single % value ≧ 40%)” and the IC50 is no more than 100 nM.
Take `CC/C(=C(/c1ccc(/C=C/C(=O)O)cc1)c1ccc2[nH]ncc2c1)c1ccc2sc(C)nc2c1` [Compound 273, (E)-3-(4-((E)-1-(1H-Indazol-5-yl)-2-(2-methylbenzo[d]thiazol-5-yl)but-1-en-1-yl)phenyl)acrylic acid]: on ER-α in MCF-7 cells, the Emax was no less than 40% and the DC50 is no more than 100 nM. Besides, in the experiment with MCF-7 cells, the “MCF7 Viability Assay Max Response” value is “++ (++ = a single % value ≧ 40%)” and the IC50 is no more than 100 nM.
`CC/C(=C(/c1ccc(/C=C/C(=O)O)cc1)c1ccc2[nH]ncc2c1)c1cc(C)sc1C` [Compound 274, (E)-3-(4-((E)-2-(2,5-Dimethylthiophen-3-yl)-1-(1H-indazol-5-yl)but-1-en-1-yl)phenyl)acrylic acid]: on ER-α in MCF-7 cells, the Emax was no less than 40% and the DC50 was no more than 100 nM. Moreover, in the experiment on MCF-7 cells, the “MCF7 Viability Assay Max Response” value is on record as “++ (++ = a single % value ≧ 40%)” and the IC50 was no more than 100 nM.
For the molecule `CC/C(=C(/c1ccc(/C=C/C(=O)O)cc1)c1ccc2scnc2c1)c1ccc(F)cc1Cl` [Compound 275, (E)-3-(4-((E)-1-(Benzo[d]thiazol-5-yl)-2-(2-chloro-4-fluorophenyl)but-1-en-1-yl)phenyl)acrylic acid], at ER-α in MCF-7 cells, the Emax was no less than 40% and the DC50 was no more than 100 nM. For the same molecule, in the experiment with MCF-7 cells, the “MCF7 Viability Assay Max Response” value is on record as “++ (++ = a single % value ≧ 40%)” and the IC50 was no more than 100 nM.
Turning to `CC/C(=C(/c1ccc(/C=C/C(=O)O)cc1)c1ccc2scnc2c1)c1cscc1C` [Compound 276, (E)-3-(4-((E)-1-(Benzo[d]thiazol-5-yl)-2-(4-methylthiophen-3-yl)but-1-en-1-yl)phenyl)acrylic acid], on ER-α in MCF-7 cells, the Emax was no less than 40% and the DC50 is no more than 100 nM. Moreover, in the experiment on MCF-7 cells, the “MCF7 Viability Assay Max Response” value was “++ (++ = a single % value ≧ 40%)” and the IC50 is no more than 100 nM.

Values taken from US9399646B2 (Genentech, Inc., priority 2010, dated 2016).
